# Experimental data taken from patent US20020193564A1, “Oligomeric chaperone proteins” (priority 1999, published 2002).
# What was measured:
# [1] = molecular target: T1, heat- and dithiothreitol-denatured mtMDH (Sus scrofa, UniProt P00346); test: In vitro refolding of denatured mtMDH; assay type: biochemical, pig; conditions: 25° C., chaperone alone, FIG. 7b
# T1 construct: Boehringer-Mannheim); purchased Boehringer-Mannheim; host or cells: pig heart
# T1 sequence (P00346 25-338): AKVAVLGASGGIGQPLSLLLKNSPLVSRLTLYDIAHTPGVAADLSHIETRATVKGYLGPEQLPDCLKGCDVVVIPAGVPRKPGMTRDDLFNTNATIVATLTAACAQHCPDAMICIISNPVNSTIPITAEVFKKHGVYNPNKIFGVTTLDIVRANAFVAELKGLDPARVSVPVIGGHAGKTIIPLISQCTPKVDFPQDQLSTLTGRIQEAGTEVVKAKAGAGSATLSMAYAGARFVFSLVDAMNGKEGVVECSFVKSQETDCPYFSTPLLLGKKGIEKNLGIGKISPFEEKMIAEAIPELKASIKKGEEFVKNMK
# Description: In vitro Refolding Experiments.
# Refolding assays of pig heart mitochondrial malate dehydrogenase (mtMDH; Boehringer-Mannheim) and aggregation protection were carried out essentially as described (Peres Ben-Zvi, A. P., Chatellier, J., Fersht, A. R. & Goloubinoff, P. (1998) Proc. Natl. Acad. Sci. U.S.A. 95, 15275-15280). The concentrations of MC7 used were between 8-16 μM (reporter to protomer).
# [2] = system: mutant Huntingdon exon 1-expressing PC12 and SH-SY5Y cells; test: Inclusion formation and cell death, mutant Huntingdon exon 1; assay type: cell-based; conditions: overexpression
# Text: These phenomena have been studied by transiently transfecting part of Huntingdon exon 1 in COS-7, PC12, and SH-SY5Y cells. Inclusion formation was not seen with constructs expressing 23 glutamines but was repeat length and time dependent for mutant constructs with 43-74 repeats. HSP70, HSP40, the 20S proteasome and ubiquitin colocalized with inclusions. […] Thus, inclusion formation may be enhanced in polyglutamine diseases, if the pathological process results in proteasome inhibition or a heat-shock response. […] To our knowledge, this is the first report of an HSP increasing aggregation of an abnormally folded protein in mammalian cells and expands the current understanding of the roles of HDJ-2yHSDJ in protein folding (See Wyttenbach, A. et al. (2000) Proc. Natl. Acad. Sci. USA 97, 2899-2903).
# We have tested MC72 in the same system.
substance,measurement,setting,value
"GroEL(1-548): key molecular chaperone in Escherichia coli, 14 subunits of 57.5 kD in two seven membered rings",rate of refolding denatured mtMDH,[1],0.04 nM/min
same,cell death,[2],no effect
same,inclusion formation,[2],no effect
